Settings in all cases: PKIS2 primary screening
One data set relates to endogenous TFEB. Kind of data set: TFEB nuclear translocation, immunocytochemistry high-content imaging. The data set is classed as cell-based.
For another data set, the system named is endogenous TFE3. The data set can be described thus: TFE3 nuclear translocation, immunocytochemistry high-content imaging. Format: cell-based.
Data set [1] has as its system SH-SY5Y cells.
Source text: The PKIS2 Library was supplied by The Structural Genomics Consortium at the University of North Carolina at Chapel Hill.
Data set [2] deals with SH-SY5Y cells. The data set can be described thus: Nuclear count from microscopy images (cellular growth and toxicity). Also: reference of the scale not given here.
In data set [3] the test system is SH-SY5Y cells. The data set can be described thus: AK (adenylate kinase) release ToxiLight cytotoxicity assay. Also: reference of the scale not given here.

Read-outs that look alike come from different tables or passages of the source.
For DQ Intensity in this document: reference of the scale not given here.
For DQ Spot in this document: reference of the scale not given here.

In turn, `Cc1nn2c(=O)cc(N3CCO[C@H](C)C3)nc2n1Cc1cccc(Cl)c1Cl` [UNC10225190A] gave a TFEB % in the data set on endogenous TFEB of 6.05%. Also, in the data set on endogenous TFE3, the TFE3 % amounted to 6.51%. For the same compound, in the data set with SH-SY5Y cells [1], the “DQ Intensity” value is on record as 96.99 and the “DQ Spot” value worked out at 93.26. Moreover, the “Nuclear Count” value in the data set with SH-SY5Y cells [2] worked out at 111.47. This compound displayed an AK with SH-SY5Y cells [3] of 79.35.
`CNc1nccc(-c2c(-c3ccc(F)cc3)ncn2CCCN2CCOCC2)n1` [UNC10225031A] displayed a TFEB % with endogenous TFEB of 8.16%. In the data set with endogenous TFE3, this compound registered a TFE3 % of 11.89%. Besides, in the data set with SH-SY5Y cells [1], the “DQ Intensity” value was determined as 87.71 and the “DQ Spot” value is reported as 104.14. Moreover, the “Nuclear Count” value in the data set on SH-SY5Y cells [2] was 102.35. This compound also displayed an AK in the data set with SH-SY5Y cells [3] of 73.64.
Take `Cc1c(Cn2c3ccccc3n3c(=O)cc(N4CCOCC4)nc23)cccc1C(F)(F)F` [UNC10225195A]: the TFEB % in the data set on endogenous TFEB is listed as 7.03%. This compound came in with a TFE3 % in the data set with endogenous TFE3 of 10.62%. Further, in the data set with SH-SY5Y cells [1], the “DQ Intensity” value came out at 86.55 and the “DQ Spot” value was 100.26. In the data set with SH-SY5Y cells [2], the “Nuclear Count” value was found to be 108.51. The AK with SH-SY5Y cells [3] is reported as 76.50.
For `Cc1c(Cn2c(C)c(C)n3c(=O)cc(N4CCOCC4)nc23)cccc1C(F)(F)F` [UNC10225225A], the TFEB % in the data set with endogenous TFEB stood at 3.43%. The same compound gave a TFE3 % in the data set on endogenous TFE3 of 8.46%. In addition, in the data set with SH-SY5Y cells [1], the “DQ Intensity” value is reported as 84.00 and the “DQ Spot” value is on record as 96.71. Moreover, the “Nuclear Count” value in the data set with SH-SY5Y cells [2] is 111.32. In the data set on SH-SY5Y cells [3], this compound gave an AK of 106.72.
On to `Oc1ccc2ncnc(Nc3ccc(OCc4ccccc4)cc3)c2c1` [UNC10225360A], for which the TFEB % in the data set on endogenous TFEB turned out to be 5.47%. The compound further displayed a TFE3 % in the data set with endogenous TFE3 of 13.64%. The “DQ Intensity” value in the data set with SH-SY5Y cells [1] (DQ Red BSA intensity) is recorded as 120.31. The “DQ Spot” value with SH-SY5Y cells [1] (DQ Red BSA spot count) came to 114.21. The “Nuclear Count” value in the data set with SH-SY5Y cells [2] was 101.58. In the data set with SH-SY5Y cells [3], this compound registered an AK of 98.47.
Compound `CC(=O)c1cccc(NC(=O)NC2CCN(c3ccnc(Nc4ccc(F)cc4)n3)C2)c1` (stereo not drawn) [GSK1379710] showed a TFEB % in the data set on endogenous TFEB of 4.15%. For the same compound, the TFE3 % in the data set with endogenous TFE3 was determined as 16.11%. In addition, the “DQ Intensity” value in the data set with SH-SY5Y cells [1] (DQ Red BSA intensity) is listed as 124.22. Also, the “DQ Spot” value with SH-SY5Y cells [1] (DQ Red BSA spot count) is 115.02. For the same compound, the “Nuclear Count” value in the data set on SH-SY5Y cells [2] was 98.98. The AK with SH-SY5Y cells [3] amounted to 70.15.
In the data set with endogenous TFEB, `Cl.O=S(=O)(c1cccc(F)c1)c1ccc(Nc2ncnc3cc(Br)sc23)cc1Cl` [UNC10224990A] yielded a TFEB % of 10.77%. This compound also registered a TFE3 % with endogenous TFE3 of 13.25%. Also, the “DQ Intensity” value with SH-SY5Y cells [1] (DQ Red BSA intensity) is given as 81.12. For the same compound, the “DQ Spot” value in the data set on SH-SY5Y cells [1] (DQ Red BSA spot count) was 105.16. In addition, the “Nuclear Count” value in the data set with SH-SY5Y cells [2] is given as 81.79. The AK in the data set on SH-SY5Y cells [3] was determined as 136.08.
The compound `FC(F)(F)c1ccccc1-c1cc(-c2c[nH]nc2-c2ccccn2)ccn1` [UNC10225184A] showed a TFEB % in the data set with endogenous TFEB of 5.60%. Also, the TFE3 % in the data set on endogenous TFE3 came to 4.50%. Besides, the “DQ Intensity” value with SH-SY5Y cells [1] (DQ Red BSA intensity) turned out to be 88.51. The “DQ Spot” value in the data set with SH-SY5Y cells [1] (DQ Red BSA spot count) came out at 92.76. In addition, in the data set with SH-SY5Y cells [2], the “Nuclear Count” value came out at 131.35. This compound also gave an AK with SH-SY5Y cells [3] of 124.66.
In the case of `Cc1ccccc1Cn1ccn2c(=O)cc(N3CCOCC3)nc12` [UNC10225355A], in the data set on endogenous TFEB, the TFEB % is 2.12%. Also, the TFE3 % with endogenous TFE3 turned out to be 15.51%. For the same compound, in the data set on SH-SY5Y cells [1], the “DQ Intensity” value is 95.37 and the “DQ Spot” value amounted to 115.18. In addition, the “Nuclear Count” value with SH-SY5Y cells [2] came out at 89.36. Moreover, the AK in the data set with SH-SY5Y cells [3] came to 91.19.
Consider `COC(=O)Nc1nc2ccc(Oc3ccc(NC(=O)Nc4cc(F)ccc4F)cc3)cc2[nH]1` [GW701424], for which, in the data set with endogenous TFEB, the TFEB % turned out to be 4.66%. The same compound yielded a TFE3 % in the data set with endogenous TFE3 of 22.54%. The “DQ Intensity” value in the data set with SH-SY5Y cells [1] (DQ Red BSA intensity) was determined as 130.75. Besides, the “DQ Spot” value with SH-SY5Y cells [1] (DQ Red BSA spot count) was 124.31. Also, the “Nuclear Count” value in the data set on SH-SY5Y cells [2] is reported as 68.78. In the data set on SH-SY5Y cells [3], this compound showed an AK of 149.19.
Compound `NC(=O)c1sc(-n2cnc3ccccc32)cc1OCc1ccccc1F` [UNC10225260A] registered a TFEB % with endogenous TFEB of 10.02%. Also, the TFE3 % with endogenous TFE3 turned out to be 15.10%. Further, in the data set on SH-SY5Y cells [1], the “DQ Intensity” value was 138.58 and the “DQ Spot” value is on record as 126.89. Besides, the “Nuclear Count” value in the data set with SH-SY5Y cells [2] stood at 92.38. Also, the AK in the data set on SH-SY5Y cells [3] is given as 77.77.
With `Cl.Cl.NCC(NC(=O)c1cc(-c2cccnc2)c(-c2ccnc3[nH]ccc23)s1)c1ccccc1` (stereo not drawn) [UNC10225315A], the TFEB % with endogenous TFEB is 2.45%. The compound further displayed a TFE3 % in the data set with endogenous TFE3 of 8.64%. Further, the “DQ Intensity” value in the data set with SH-SY5Y cells [1] (DQ Red BSA intensity) is 78.29. The “DQ Spot” value in the data set with SH-SY5Y cells [1] (DQ Red BSA spot count) is 90.57. Besides, in the data set on SH-SY5Y cells [2], the “Nuclear Count” value came out at 113.28. Moreover, the AK in the data set with SH-SY5Y cells [3] is recorded as 87.17.
Compound `O=S(=O)(c1ccc(-c2ccnc3[nH]ccc23)cc1)N1CCCC1` [UNC10225462A] displayed a TFEB % in the data set with endogenous TFEB of 5.43%. This compound returned a TFE3 % in the data set with endogenous TFE3 of 10.23%. In addition, the “DQ Intensity” value in the data set with SH-SY5Y cells [1] (DQ Red BSA intensity) was found to be 72.77. Further, in the data set on SH-SY5Y cells [1] (DQ Red BSA spot count), the “DQ Spot” value worked out at 93.44. In addition, the “Nuclear Count” value in the data set with SH-SY5Y cells [2] came out at 103.12. Also, the AK in the data set on SH-SY5Y cells [3] was found to be 140.08.
In the data set on endogenous TFEB, `COc1cc2ncn(-c3cc(OCc4ccncc4)c(C(N)=O)s3)c2cc1OC` [UNC10225069A] displayed a TFEB % of 3.88%. Moreover, in the data set with endogenous TFE3, the TFE3 % was 7.35%. Further, in the data set with SH-SY5Y cells [1], the “DQ Intensity” value came to 66.90 and the “DQ Spot” value is listed as 87.03. Also, in the data set with SH-SY5Y cells [2], the “Nuclear Count” value came to 104.39. Also, the AK in the data set with SH-SY5Y cells [3] turned out to be 99.11.
`COC(=O)c1cccc(NC(=O)NC2CCN(c3ccnc(NCc4ccc(F)cc4)n3)CC2)c1` [GSK1379860]: the TFEB % with endogenous TFEB is listed as 6.34%. Besides, the TFE3 % with endogenous TFE3 is on record as 10.41%. For the same compound, the “DQ Intensity” value in the data set on SH-SY5Y cells [1] (DQ Red BSA intensity) is 146.32. Moreover, the “DQ Spot” value in the data set with SH-SY5Y cells [1] (DQ Red BSA spot count) is on record as 93.58. In addition, in the data set on SH-SY5Y cells [2], the “Nuclear Count” value is on record as 118.43. Moreover, the AK with SH-SY5Y cells [3] is listed as 178.25.
In the data set on endogenous TFEB, `Cl.O=C(Nc1cccc(-c2nn3ncccc3c2-c2ccnc(Nc3cccnc3)n2)c1)c1c(F)cccc1F` [UNC10225440A] returned a TFEB % of 7.43%. The compound further registered a TFE3 % in the data set on endogenous TFE3 of 9.74%. In the data set with SH-SY5Y cells [1], the “DQ Intensity” value was 138.59 and the “DQ Spot” value came out at 122.41. The “Nuclear Count” value in the data set on SH-SY5Y cells [2] is 119.73. In the data set with SH-SY5Y cells [3], this compound yielded an AK of 101.41.
In the data set on endogenous TFEB, `CCn1c(-c2nonc2N)nc2c(-c3ccccc3)ncc(OCCCN)c21.O=C(O)C(F)(F)F.O=C(O)C(F)(F)F` [UNC10225047A] gave a TFEB % of 27.76%. This compound also showed a TFE3 % with endogenous TFE3 of 79.68%. In addition, in the data set on SH-SY5Y cells [1], the “DQ Intensity” value came to 51.60 and the “DQ Spot” value is reported as 50.36. For the same compound, the “Nuclear Count” value in the data set with SH-SY5Y cells [2] came to 137.54. In the data set on SH-SY5Y cells [3], the AK came out at 103.12.
`O=C(Nc1n[nH]c2nc(-c3ccco3)c(Br)cc12)c1ccc(CN2CCCC2)cc1` [SB-742352] displayed a TFEB % in the data set with endogenous TFEB of 7.90%. The TFE3 % in the data set with endogenous TFE3 came out at 19.33%. In the data set with SH-SY5Y cells [1] (DQ Red BSA intensity), the “DQ Intensity” value was found to be 92.66. For the same compound, the “DQ Spot” value in the data set with SH-SY5Y cells [1] (DQ Red BSA spot count) is reported as 91.08. The “Nuclear Count” value in the data set on SH-SY5Y cells [2] amounted to 100.71. The compound further yielded an AK in the data set with SH-SY5Y cells [3] of 95.96.
As for `CSc1nccc(-c2c(-c3ccc(F)cc3)ncn2CCCN2CCOCC2)n1.Cl` [UNC10225426A], in the data set with endogenous TFEB, the TFEB % is recorded as 11.69%. Moreover, in the data set with endogenous TFE3, the TFE3 % is 5.71%. In the data set on SH-SY5Y cells [1], the “DQ Intensity” value came out at 91.90 and the “DQ Spot” value was determined as 91.96. Besides, the “Nuclear Count” value with SH-SY5Y cells [2] came out at 113.07. The compound further displayed an AK with SH-SY5Y cells [3] of 81.99.
Compound `COc1cc(Nc2nccc(N3CCC(NC(=O)C(C)c4ccc(Cl)cc4)C3)n2)cc(OC)c1OC` (stereo not drawn) [GSK1379757] yielded a TFEB % with endogenous TFEB of 5.14%. In addition, the TFE3 % in the data set with endogenous TFE3 was found to be 15.24%. Moreover, the “DQ Intensity” value in the data set on SH-SY5Y cells [1] (DQ Red BSA intensity) turned out to be 100.22. The “DQ Spot” value in the data set on SH-SY5Y cells [1] (DQ Red BSA spot count) is reported as 95.49. Further, the “Nuclear Count” value with SH-SY5Y cells [2] amounted to 80.40. The compound also gave an AK in the data set with SH-SY5Y cells [3] of 97.54.

The values are drawn from paper PMC9851200, “Multiparameter phenotypic screening for endogenous TFEB and TFE3 translocation identifies novel chemical series modulating lysosome function” (Autophagy, 2022).
